Activity calls are given as the source filed them. No cut-off for these calls is given here.
How the values were obtained:
[1] = Inhibition of trypsin at 32 degC
[2] = Inhibition of trypsin at 37 degC
[3] = Inhibition of trypsin by classical double reciprocal plot
[4] = Inhibition of trypsin by Dixon plot
[5] = Inhibition of trypsin
[6] = Inhibition of chymotrypsin
[7] = Inhibition of trypsin at 42 degC

O=C(O)c1ccc(C(=O)O)c2c1c(C(=O)O)c1cccnc1[n+]2C(=O)O
Ki [1]: 102 µM | Ki [2]: 97.1 µM | Ki [3]: 105 µM | Ki [4]: 97.1 µM | IC50 [5]: 102 µM | Activity [6]: inactive | Ki [7]: 94 µM

— ChEMBL document CHEMBL1155065, “A serine protease inhibitor from hemolymph of green mussel, Perna viridis” (Bioorg Med Chem Lett, 2008)
